# Source: patent publication US9346811B2, “6,7-dihydro-pyrazolo[1,5-a]pyrazin-4-ylamine derivatives useful as inhibitors of beta-secretase (BACE)” (JANSSEN PHARMACEUTICA NV, priority 2011, dated 2016)
# Structures can show the parent of a compound that is named as a salt. Where two headings read alike, the source gives them in different places.
# Tests used:
# [1] = molecular target: recombinant BACE1 protein (Homo sapiens, UniProt P56817); assay: Biochemical FRET based assay; conditions: recombinant BACE1 1 μg/ml, 120 min, pH 5.0; for IC50: read-out: Biochemical FRET based assay pIC50 (converted)
# From the text: Biochemical FRET Based Assay
# This assay is a Fluorescence Resonance Energy Transfer Assay (FRET) based assay. The substrate for this assay is an APP derived 13 amino acids peptide that contains the ‘Swedish’ Lys-Met/Asn-Leu mutation of the amyloid precursor protein (APP) β-secretase cleavage site. This substrate also contains two fluorophores: (7-methoxycoumarin-4-yl)acetic acid (Mca) is a fluorescent donor with excitation wavelength at 320 nm and emission at 405 nm and 2,4-Dinitrophenyl (Dnp) is a proprietary quencher acceptor. […] Upon cleavage by BACE1, the fluorophore Mca is separated from the quenching group Dnp, restoring the full fluorescence yield of the donor. The increase in fluorescence is linearly related to the rate of proteolysis (Koike H et al. J. Biochem. 1999, 126, 235-242). Briefly in a 384-well format recombinant BACE1 protein in a final concentration of 1 μg/ml is incubated for 120 min at room temperature with 10 μm substrate in incubation buffer (40 mM Citrate buffer pH 5.0, 0.04% PEG, 4% DMSO) in the absence or presence of compound. Next the amount of proteolysis is directly measured by fluorescence measurement at T=0 and T=120 (excitation at 320 nm and emission at 405 nm).
# [2] = system: Aβ42 produced and secreted into the medium of human neuroblastoma SKNBE2 cells; assay: Cellular αlisa assay in SKNBE2 cells, Aβ42; assay type: cell-based; conditions: for IC50: Homo sapiens, SKNBE2, 18 h, read-out: Cellular αlisa assay in SKNBE2 cells Aβ42 pIC50 (converted)
# Protocol: (§1) Cellular αlisa Assay in SKNBE2 Cells
# (§2) In two αlisa assays the levels of Aβtotal and Aβ42 produced and secreted into the medium of human neuroblastoma SKNBE2 cells are quantified. The assay is based on the human neuroblastoma SKNBE2 expressing the wild type Amyloid Precursor Protein (hAPP695). The compounds are diluted and added to these cells, incubated for 18 hours and then measurements of Aβ42 and Aβtotal are taken. Aβtotal and Aβ42 are measured by sandwich αlisa. αlisa is a sandwich assay using biotinylated antibody AbN/25 attached to streptavidin coated beads and antibody Ab4G8 or cAb42/26 conjugated acceptor beads for the detection of Aβtotal and Aβ42 respectively. In the presence of Aβtotal or Aβ42, the beads come into close proximity. The excitation of the Donor beads provokes the release of singlet oxygen molecules that triggers a cascade of energy transfer in the Acceptor beads, resulting in light emission. Light emission is measured after 1 hour incubation (excitation at […] and emission at 615 nm).
# (§3) A best-fit curve is fitted by a minimum sum of squares method to the plot of % Controlmin versus compound concentration.
# [3] = system: Aβtotal produced and secreted into the medium of human neuroblastoma SKNBE2 cells; assay: Cellular αlisa assay in SKNBE2 cells, Aβtotal; assay type: cell-based; conditions: for IC50: Homo sapiens, SKNBE2, 18 h, read-out: Cellular αlisa assay in SKNBE2 cells Aβtotal pIC50 (converted)
# Protocol: as §1, §2, §3
# [4] = SKNBE2 cells expressing hAPP695, 18 hours incubation
# recombinant BACE1 protein, sequence (P56817 46-501): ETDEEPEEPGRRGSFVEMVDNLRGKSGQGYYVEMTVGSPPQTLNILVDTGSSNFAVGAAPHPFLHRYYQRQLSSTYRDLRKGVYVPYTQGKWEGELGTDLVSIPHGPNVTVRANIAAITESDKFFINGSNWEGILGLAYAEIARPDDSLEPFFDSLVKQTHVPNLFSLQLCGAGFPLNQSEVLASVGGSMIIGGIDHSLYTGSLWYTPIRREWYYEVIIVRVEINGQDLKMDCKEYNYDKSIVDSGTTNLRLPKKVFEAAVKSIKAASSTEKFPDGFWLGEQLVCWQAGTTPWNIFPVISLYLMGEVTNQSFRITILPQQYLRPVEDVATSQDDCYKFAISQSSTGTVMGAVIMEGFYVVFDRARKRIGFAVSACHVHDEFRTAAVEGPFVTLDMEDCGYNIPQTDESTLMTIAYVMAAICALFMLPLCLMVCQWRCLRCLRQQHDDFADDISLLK
Compound,Biochemical FRET based assay pIC50 [1],"Cellular αlisa assay in SKNBE2 cells Aβ42 pIC50 [2, 4]","Cellular αlisa assay in SKNBE2 cells Aβtotal pIC50 [3, 4]","IC50 [2, 4] [nM]","IC50 [3, 4] [nM]",IC50 [1] [nM],IC50 [2] [nM],IC50 [3] [nM]
Cc1nn2c(c1F)C(N)=NC(C)(c1cc(NC(=O)c3ccn(C(F)F)n3)ccc1F)C2 (stereo not drawn) [Compound 42],7.12,8.02,7.99,–,–,–,–,–
"C[C@@]1(c2cccc(-c3cncc(Cl)c3)c2)Cn2nccc2C(N)=N1 [Compound 1, (R)-6-[3-(5-chloro-pyridin-3-yl)-phenyl]-6-methyl-6,7-dihydro-pyrazolo[1,5-a]pyrazin-4-ylamine trifluoroacetate salt]",–,–,–,–,–,525,93.3,100
COc1cnc(C(=O)Nc2cccc(C3(C)Cn4nc(C(F)(F)F)cc4C(N)=N3)c2)cn1 (racemic) [Compound 30],6.77,7.43,7.45,–,–,–,–,–
"COc1cnc(C(=O)Nc2cccc(C3(C)Cn4nc(C(F)(F)F)cc4C(N)=N3)c2)cn1 (single isomer, unassigned) [Compound 31]",4.97,5.58,5.61,–,–,–,–,–
"CC1(c2cccc(NC(=O)c3ncc(Cl)cc3Cl)c2)Cn2nc(C(F)(F)F)cc2C(N)=N1 (single isomer, unassigned) [Compound 12, (S*)-3,5-dichloro-pyridine-2-carboxylic acid [3-(4-amino-6-methyl-2-trifluoromethyl-6,7-dihydro-pyrazolo[1,5-a]pyrazin-6-yl)-phenyl]-amide]",–,5.64,5.75,–,–,8710,–,–
"CC1(c2cccc(NC(=O)c3ncc(Cl)cc3Cl)c2)Cn2nccc2C(N)=N1 (single isomer, unassigned) [Compound 5, (S*)-3,5-dichloro-pyridine-2-carboxylic acid [3-(4-amino-6-methyl-6,7-dihydro-pyrazolo[1,5-a]pyrazin-6-yl)-phenyl]-amide]",–,8.59,8.55,–,–,37.2,–,–
"CC1(c2cccc(NC(=O)c3ncc(Cl)cc3Cl)c2)Cn2nc(C(F)(F)F)cc2C(N)=N1 (racemic) [Compound 10, rac-3,5-dichloro-pyridine-2-carboxylic acid [3-(4-amino-6-methyl-2-trifluoromethyl-6,7-dihydro-pyrazolo[1,5-a]pyrazin-6-yl)-phenyl]-amide]",–,–,–,16.6,15.5,63.1,–,–
"COc1cnc(C(=O)Nc2ccc(F)c([C@]3(C)Cn4ncc(F)c4C(N)=N3)c2)cn1 [Compound 13, (R)-5-methoxy-pyrazine-2-carboxylic acid [3-(4-amino-3-fluoro-6-methyl-6,7-dihydro-pyrazolo[1,5-a]pyrazin-6-yl)-4-fluoro-phenyl]-amide]",–,–,–,6.76,5.5,72.4,–,–
"CC1(c2cccc(NC(=O)c3ccc(C#N)cn3)c2)Cn2ncc(Br)c2C(N)=N1 (racemic) [Compound 9, rac-5-cyano-pyridine-2-carboxylic acid [3-(4-amino-3-bromo-6-methyl-6,7-dihydro-pyrazolo[1,5-a]pyrazin-6-yl)-phenyl]-amide trifluorocetate salt]",–,–,–,1000,871,7940,–,–
"C[C@@]1(c2cc(NC(=O)c3cnn(C(F)F)c3)ccc2F)Cn2nc(C#N)cc2C(N)=N1 [Compound 25, (R)-1-difluoromethyl-1H-pyrazole-4-carboxylic acid [3-(4-amino-2-cyano-6-methyl-6,7-dihydro-pyrazolo[1,5-a]pyrazin-6-yl)-4-fluoro-phenyl]-amide]",–,–,–,1.32,1.35,–,–,–

# Continued, in another order:
Biochemical FRET based assay pIC50 [1],"Cellular αlisa assay in SKNBE2 cells Aβ42 pIC50 [2, 4]","Cellular αlisa assay in SKNBE2 cells Aβtotal pIC50 [3, 4]","IC50 [2, 4] [nM]","IC50 [3, 4] [nM]",IC50 [1] [nM],Compound,IC50 [2] [nM],IC50 [3] [nM]
7.28,8.42,8.37,–,–,–,CC1(c2cc(NC(=O)c3ccn(C(F)F)n3)ccc2F)Cn2nc(C(F)F)cc2C(N)=N1 (stereo not drawn) [Compound 40],–,–
–,6.13,6.13,–,–,–,"CC1(c2cccc(NC(=O)c3ccc(C#N)cn3)c2)Cn2nccc2C(N)=N1 (single isomer, unassigned) [Compound 8, (S*)-5-cyano-pyridine-2-carboxylic acid [3-(4-amino-6-methyl-6,7-dihydro-pyrazolo[1,5-a]pyrazin-6-yl)-phenyl]-amide]",–,–
–,–,–,5.75,5.13,–,"CC1(c2cccc(NC(=O)c3ccc(C#N)cn3)c2)Cn2nccc2C(N)=N1 (racemic) [Compound 6, rac-5-cyano-pyridine-2-carboxylic acid [3-(4-amino-6-methyl-6,7-dihydro-pyrazolo[1,5-a]pyrazin-6-yl)-phenyl]-amide]",–,–
–,7.17,7.21,–,–,25.7,"NC1=NC(c2cc(NC(=O)c3ccc(F)cn3)ccc2F)(C(F)F)Cn2nccc21 (single isomer, unassigned) [Compound 22, (R*)-5-fluoro-pyridine-2-carboxylic acid [3-(4-amino-6-difluoromethyl-6,7-dihydro-pyrazolo[1,5-a]pyrazin-6-yl)-4-fluoro-phenyl]-amide]",–,–
–,–,–,1.35,1.17,35.5,"CC1(c2cc(NC(=O)c3ncc(Cl)cc3Cl)ccc2F)Cn2nccc2C(N)=N1 (racemic) [Compound 14, rac-3,5-dichloro-pyridine-2-carboxylic acid [3-(4-amino-6-methyl-6,7-dihydro-pyrazolo[1,5-a]pyrazin-6-yl)-4-fluoro-phenyl]-amide]",–,–
–,9.33,9.37,–,–,18.6,"CC1(c2cc(NC(=O)c3ncc(Cl)cc3Cl)ccc2F)Cn2nccc2C(N)=N1 (single isomer, unassigned) [Compound 15, (R*)-3,5-dichloro-pyridine-2-carboxylic acid [3-(4-amino-6-methyl-6,7-dihydro-pyrazolo[1,5-a]pyrazin-6-yl)-4-fluoro-phenyl]-amide]",–,–
–,–,–,85.1,66.1,66.1,"NC1=NC(c2cc(NC(=O)c3ccc(F)cn3)ccc2F)(C(F)F)Cn2nccc21 (racemic) [Compound 20, rac-5-fluoro-pyridine-2-carboxylic acid [3-(4-amino-6-difluoromethyl-6,7-dihydro-pyrazolo[1,5-a]pyrazin-6-yl)-4-fluoro-phenyl]-amide]",–,–
7.39,8.61,8.59,–,–,–,CC1(c2cc(NC(=O)c3ccc(Cl)cn3)ccc2F)Cn2nc(C(F)F)cc2C(N)=N1 (stereo not drawn) [Compound 39],–,–
–,5.84,5.84,–,–,21400,"CC1(c2cccc(NC(=O)c3ncc(Cl)cc3Cl)c2)Cn2nccc2C(N)=N1 (single isomer, unassigned) [Compound 4, (R*)-3,5-dichloro-pyridine-2-carboxylic acid [3-(4-amino-6-methyl-6,7-dihydro-pyrazolo[1,5-a]pyrazin-6-yl)-phenyl]-amide]",–,–
6.03,6.16,6.22,–,–,–,CC1(c2cc(NC(=O)c3ccc(F)cn3)ccc2F)Cn2ncc(Cl)c2C(N)=N1 (stereo not drawn) [Compound 38],–,–
–,–,–,3.24,3.39,46.8,"CC1(c2cccc(NC(=O)c3ncc(Cl)cc3Cl)c2)Cn2nccc2C(N)=N1 (racemic) [Compound 3, rac-3,5-dichloro-pyridine-2-carboxylic acid [3-(4-amino-6-methyl-6,7-dihydro-pyrazolo[1,5-a]pyrazin-6-yl)-phenyl]-amide]",–,–
